From patent US8222487B2, “Application of ERF genes from Bupleurum kaoi” (National Tsing Hua University, priority 2009, dated 2012)

System: B. kaoi adventitious roots
Test: Effect of MeJA on saikosaponin production in adventitious roots (HPLC)
Format: cell-based, Bupleurum kaoi
Settings: for Increase of total saikosaponins: 2 weeks after treatment, P<0.05; for Saikosaponin: measured 14 days after MeJA treatment, mean ± S.E., n=3
Method: Adventitious root cultures were induced from the roots of germ-free seedlings of B. kaoi and were subcultured every 6 weeks by adding 0.2 g roots to a 125 ml flask containing 50 ml of B5 liquid medium supplemented with 2 mg 1^−1 NAA. Cultures were shaken using a rotary shaker at 100 rpm at 25° C. in the dark. To quantify the effect of MeJA on saikosaponin level, adventitious roots were treated with 500 and 1000 μM MeJA 2 weeks after subculture. Total saikosaponin was measured 2 weeks after MeJA treatment. To monitor expression of MeJA-responsive genes, the nutrient medium was refreshed 4 weeks after subculture and MeJA (500 μM) was applied 2 weeks after refreshment. Roots were harvested at 13 time points (5 min; 1, 2, 8, 24 hours; 2, 4, 6, 8 days; 2, 3, 4, 5 weeks) after the addition of the MeJA. The saikosaponins level was measured according to Li et al. (Li X. Q. et al., Biol. Pharm. Bull. 28 (2005) 1736-1742) with some modifications. Freeze-dried adventitious roots were ground into a fine powder and extracted with 70% methanol at a ratio of 10:1 (v/w) at 25° C. with gentle shaking for 24 h. After centrifugation at 10,000×g for 10 min, the supernatant was filtered through a 0.45 μm filter. The amount of total saikosaponins (saikosaponin-a, saikosaponin-c, and saikosaponin-d) in each extract was quantified using a high performance liquid chromatograph (HPLC) (Waters 600 controller autoinjector) with a C18 Inertsil 5 ODS-2 column (4.6 mm×250 mm) and a mobile phase of 45% acetonitrile/55% H2O. The flow rate was 1 ml min^−1, the injection volume was 20 μl, and the eluent was monitored at 210 nm using a Waters 996 photodiode array detector.

CC/C=C\CC1C(=O)CCC1CC(=O)OC (stereo not shown) [MeJA, Methyl jasmonate]
Increase of total saikosaponins (500 μM MeJA): 38 fold
Increase of total saikosaponins (1000 μM MeJA): 21 fold
Saikosaponin (MeJA 500 μM): 63.60 ± 20.46 μg g^−1 of dry wt
Saikosaponin (MeJA 1000 μM): 39.73 ± 13.25 μg g^−1 of dry wt
